Experimental data published in US20020137929A1, “1 - (3-heterocyclylphenyl) isothiourea, -isourea, -guanidine and -amidine herbicidal agents” (Intellectual Property Department, BASF Aktiengesellschaft, priority 1998, published 2002).

How the values were obtained:
ECHCG (Barnyardgrass) = assay: Preemergence herbicidal evaluation; assay type: in vivo, Echinochloa crus-galli; conditions: rated 4-5 weeks after treatment, rating scale 0-9
Outline: (§1)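 Test compound, dissolved in aqueous acetone, was sprayed over planted soil cups at an equivalent of about 0.0156 to 0.500 kg/ha; seeds had been mixed with potting soil. Greenhouse growth followed, with visual 0-9 scoring of injury at four to five weeks.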

ABUTH (Velvetleaf) = assay: Postemergence herbicidal evaluation; assay type: in vivo, Abutilon theophrasti; conditions: postemergence
Outline: (§2)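 Rate range approx. 0.0156–0.500 kg/ha. Foliar application at 40 psi to ~2-week seedlings; surfactant 0.5% TWEEN 20 in 50/50 acetone/water. Evaluation 4–5 wk post-treatment by 0–9 visual injury score, means of replicate tests.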

[1] = test system: TRZAWR (Wheat, Winter, cv Riband); assay: Preemergence herbicidal evaluation; assay type: in vivo, Triticum aestivum; conditions: rated 4-5 weeks after treatment, rating scale 0-9
Outline: as §1

ORYSAT (Rice, Tebonnet) = assay: Preemergence herbicidal evaluation; assay type: in vivo, Oryza sativa, (L.) Tebonnet; conditions: rated 4-5 weeks after treatment, rating scale 0-9
Outline: as §1

[2] = test system: ECHORC (Watergrass (Calif.)); assay: Preemergence weed control under flooded paddy conditions; assay type: in vivo, Echinochloa oryzoides; conditions: 0.2500 kg/ha, rated 3-4 weeks after treatment
Outline: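 First, seeds or propagules go into the top 0.5 cm of silt loam; next, water is held 1.5 to 3 cm over the soil; then compound (50/50 acetone/water) is pipetted into it at about 0.0313 to 0.500 kg/ha; finally plants are rated visually 0-9 after three to four weeks.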

[3] = test system: IPOHE (Morningglory, Ivyleaf); assay: Postemergence herbicidal evaluation; assay type: in vivo, Ipomoea hederacea; conditions: postemergence
Outline: as §2

MOOVA (Monochoria) = assay: Preemergence weed control under flooded paddy conditions; assay type: in vivo, Monochoria vaginalis; conditions: 0.2500 kg/ha, rated 3-4 weeks after treatment
Outline: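 Seeds or propagules sown in top 0.5 cm of silt loam soil, flooded 1.5 to 3 cm above surface throughout. Compound in 50/50 v/v aqueous/acetone pipetted into flood water at about 0.0313 to 0.500 kg/ha. Visual 0-9 rating versus control after three to four weeks in greenhouse.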

[4] = test system: TRZAWR (Wheat, Winter, cv Riband); assay: Postemergence herbicidal evaluation; assay type: in vivo, Triticum aestivum; conditions: postemergence
Outline: as §2

[5] = test system: CHEAL (Lambsquarters, Common); assay: Preemergence herbicidal evaluation; assay type: in vivo, Chenopodium album; conditions: rated 4-5 weeks after treatment, rating scale 0-9
Outline: as §1

SETVI (Foxtail, Green) = assay: Preemergence herbicidal evaluation; assay type: in vivo, Setaria viridis; conditions: rated 4-5 weeks after treatment, rating scale 0-9
Outline: as §1

[6] = test system: IPOHE (Morningglory, Ivyleaf); assay: Preemergence herbicidal evaluation; assay type: in vivo, Ipomoea hederacea; conditions: rated 4-5 weeks after treatment, rating scale 0-9
Outline: as §1

Row | Structure (SMILES) | Preemergence herbicidal rating ECHCG (ECHCG (Barnyardgrass); rate 0.1250 kg/ha) | Preemergence herbicidal rating ECHCG (ECHCG (Barnyardgrass); rate 0.2500 kg/ha) | herbicidal rating ABUTH (ABUTH (Velvetleaf); rate 0.0156 kg/ha) | herbicidal rating ABUTH (ABUTH (Velvetleaf); rate 0.0313 kg/ha) | herbicidal rating ABUTH (ABUTH (Velvetleaf); rate 0.0625 kg/ha) | Preemergence herbicidal rating TRZAWR ([1]; rate 0.1250 kg/ha) | Preemergence herbicidal rating TRZAWR ([1]; rate 0.2500 kg/ha) | Preemergence herbicidal rating ORYSAT (ORYSAT (Rice, Tebonnet); rate 0.1250 kg/ha) | Preemergence herbicidal rating ORYSAT (ORYSAT (Rice, Tebonnet); rate 0.2500 kg/ha) | herbicidal effect rating, ECHORC [2] | herbicidal rating IPOHE ([3]; rate 0.0156 kg/ha) | herbicidal rating IPOHE ([3]; rate 0.0313 kg/ha) | herbicidal rating IPOHE ([3]; rate 0.0625 kg/ha) | herbicidal effect rating, MOOVA (MOOVA (Monochoria)) | herbicidal rating TRZAWR ([4]; rate 0.0156 kg/ha) | herbicidal rating TRZAWR ([4]; rate 0.0313 kg/ha) | herbicidal rating TRZAWR ([4]; rate 0.0625 kg/ha) | Preemergence herbicidal rating CHEAL ([5]; rate 0.1250 kg/ha) | Preemergence herbicidal rating CHEAL ([5]; rate 0.2500 kg/ha) | Preemergence herbicidal rating SETVI (SETVI (Foxtail, Green); rate 0.1250 kg/ha) | also measured
1 | COc1ccc(CN2C(=O)CSC2=Nc2cc(-n3c(=O)cc(C(F)(F)F)n(C)c3=O)c(F)cc2Cl)cc1OC [Compound 134, 3-{4-Chloro-5-{[3-(3,4-dimethoxybenzyl)-4-oxo-2-thiazolidinylidene]amino}-2-fluorophenyl}-1-methyl-6-(trifluoromethyl)-2,4(1H,3H)-pyrimidinedione] | 0.0 | 0.0 | 5.0 | 7.0 | 9.0 | 0.0 | 0.0 | 0.0 | 0.0 | 2.0 | 3.0 | 9.0 | 9.0 | 2.0 | 2.5 | 3.5 | 4.0 | 9.0 | 9.0 | 0.0 | Preemergence herbicidal rating SETVI (SETVI (Foxtail, Green); rate 0.2500 kg/ha): 2.0; Preemergence herbicidal rating IPOHE ([6]; rate 0.1250 kg/ha): 0.0; Preemergence herbicidal rating IPOHE ([6]; rate 0.2500 kg/ha): 0.0
2 | CSCCN1C(=O)CSC1=Nc1cc(-n2c(=O)cc(C(F)(F)F)n(C)c2=O)c(F)cc1Cl [Compound 157] | 1.0 | 0.0 | 7.0 | 9.0 | 9.0 | 0.0 | 0.0 | 0.0 | 0.0 | 0.0 | 3.0 | 7.0 | 6.0 | 0.0 | 2.5 | 3.5 | 4.0 | 9.0 | 9.0 | 2.0 | Preemergence herbicidal rating ECHCG (ECHCG (Barnyardgrass); rate 0.0313 kg/ha): 0.0; Preemergence herbicidal rating ECHCG (ECHCG (Barnyardgrass); rate 0.0625 kg/ha): 0.0; Preemergence herbicidal rating TRZAWR ([1]; rate 0.0313 kg/ha): 0.0; Preemergence herbicidal rating TRZAWR ([1]; rate 0.0625 kg/ha): 0.0; Preemergence herbicidal rating ORYSAT (ORYSAT (Rice, Tebonnet); rate 0.0313 kg/ha): 0.0; Preemergence herbicidal rating ORYSAT (ORYSAT (Rice, Tebonnet); rate 0.0625 kg/ha): 0.0; Preemergence herbicidal rating CHEAL ([5]; rate 0.0313 kg/ha): 1.0; Preemergence herbicidal rating CHEAL ([5]; rate 0.0625 kg/ha): 0.0; Preemergence herbicidal rating SETVI (SETVI (Foxtail, Green); rate 0.0313 kg/ha): 0.0; Preemergence herbicidal rating SETVI (SETVI (Foxtail, Green); rate 0.0625 kg/ha): 0.0; Preemergence herbicidal rating SETVI (SETVI (Foxtail, Green); rate 0.2500 kg/ha): 1.0; Preemergence herbicidal rating IPOHE ([6]; rate 0.0313 kg/ha): 0.0; Preemergence herbicidal rating IPOHE ([6]; rate 0.0625 kg/ha): 0.0; Preemergence herbicidal rating IPOHE ([6]; rate 0.1250 kg/ha): 1.0; Preemergence herbicidal rating IPOHE ([6]; rate 0.2500 kg/ha): 2.0
